In patent publication US8907110B2, “Benzodioxepin-3-one compounds as dyes or as fluorescent emitters” (Merck Patent GmbH, priority 2011, dated 2014):

Legend:
Type in all cases: physicochemical
[1] = Fluorescence measurements in ethanol; settings: 0.00804-0.00820 mg/ml, cell thickness 1 cm
Procedure: The substance concentrations in ethanol indicated in the table are measured using an Aminco Bowman 2 fluorescence spectrometer (cell thickness 1 cm; excitation 220-600 nm; emission 220-800 nm; spectral gap width (excitation) 4 nm, (emission) 8 nm; recording speed 10 nm/min; step width (excitation) 5 nm, (emission) 4 nm.

[2] = Absorption strength (absorption spectrum in ethanol); settings: for λmax: absorption maximum, dilute solution; for λmax / Half-value width / intense absorption up to / spectral range covered compared with curcumin and beta-carotene: in ethanol; for E1 % value: extinction at the absorption maximum extrapolated to a concentration of 1 g/100 ml, ethanol; for Half-value width: half-value width of the absorption band
Procedure: The measure used for the absorption strength is the so-called E1% value, and the half-value width of the absorption band in relation to the absorption maximum λmax indicated. The E1% value indicates the extinction at the absorption maximum extrapolated to a concentration of 1 g/100 ml. To this end, an absorption spectrum of the substance in ethanol is recorded in dilute solution. The values are compared with the reference spectra of curcumin and beta-carotene.

[3] = Thermal stability by thermographic method (TGA); settings: for Temperature at which 98% of the weight was still present: TGA, RT to 800° C., heating rate 10 K/min
Procedure: The thermal stability is determined with the aid of the thermographic method (instrument TGA Q5000 V3.10 Build 258, temperature range RT to 800° C., heating rate 10 K/min).

[4] = Solubility determination in phenethyl benzoate (X-Tend 226)
Procedure: The solubility determination was carried out in phenethyl benzoate (X-Tend 226): […]

Structure (SMILES) | Emission [1] [nm] | Excitation [1] [nm] | λmax [2] [nm] | E1 % value [2] | Half-value width [2] | intense absorption up to [2] | spectral range covered compared with curcumin and beta-carotene [2] | thermal stability (in words) [3] | Temperature at which 98% of the weight was still present [3] [°C] | Solubility in X-Tend 226 [4] [%]
CCCCN(CCCC)c1ccc(/C=C2\Oc3ccc(C)cc3O/C(=C\c3ccc(N(CCCC)CCCC)cc3)C2=O)cc1 [Example 8, 7-methyl-2,4-bis[1-(4-dibutylaminophenyl)meth-(Z)-ylidene]benzo[b]-1,4-dioxepin-3-one] | 320 | 260 | 484 | 571 | approx. 122 nm | up to 609 nm | significantly greater spectral range | excellent | 250 | 5.0
CC1=C(/C=C/C(C)=C/C=C/C(C)=C/C=C/C=C(C)/C=C/C=C(C)/C=C/C2=C(C)CCCC2(C)C)C(C)(C)CCC1 [Beta-carotene, beta-carotene, reference compound] |  |  | 453 | 408 | approx. 88 nm |  |  |  | 84 | 
COc1cc(OC)c(OC)cc1/C=C1\Oc2ccc(C)cc2O/C(=C\c2cc(OC)c(OC)cc2OC)C1=O [Example 1, 7-methyl-2,4-bis[1-(2,4,5-trimethoxyphenyl)meth-(Z)-ylidene]benzo[b]-1,4-dioxepin-3-one] | 412 |  | 437 | 505 | approx. 102 nm | up to 539 nm | significantly greater spectral range | excellent | 281 | 2.2

Further lines, results first:

Emission [1] [nm] | Excitation [1] [nm] | λmax [2] [nm] | E1 % value [2] | Half-value width [2] | intense absorption up to [2] | spectral range covered compared with curcumin and beta-carotene [2] | thermal stability (in words) [3] | Temperature at which 98% of the weight was still present [3] [°C] | Solubility in X-Tend 226 [4] [%] | Structure (SMILES)
322 | 230 | 369 | 515 | approx. 100 nm |  | significantly greater spectral range | excellent | 286 | 4.5 | COc1ccc(/C=C2\Oc3ccc(C)cc3O/C(=C\c3ccc(OC)c(OC)c3)C2=O)cc1OC [Example 3, 2,4-bis[1-(3,4-dimethoxyphenyl)-meth-(Z)-ylidene]-7-methylbenzo[b]-1,4-dioxepin-3-one]
 |  | 426 | 1507 | approx. 78 nm |  |  | not thermally stable | 223 |  | COc1cc(/C=C/C(=O)CC(=O)/C=C/c2ccc(O)c(OC)c2)ccc1O [Curcumin, curcumin, reference compound]
 |  |  |  |  | up to 478 nm |  |  |  |  | COc1ccc(/C=C2\Oc3ccc(C)cc3O/C(=C\c3ccc(OC)cc3)C2=O)cc1 [Example 2, 2,4-bis[1-(4-methoxyphenyl)meth-(Z)-ylidene]-7-methylbenzo[b]-1,4-dioxepin-3-one]
